From ChEMBL document CHEMBL5291721, “A preclinical secondary pharmacology resource illuminates target-adverse drug reaction associations of marketed drugs” (Nat Commun, 2023) come the findings set out here.

For orientation: AC50 means the concentration giving half of the maximal activity seen.

Assay [1] deals with T1, Muscarinic acetylcholine receptor M2 (Homo sapiens, UniProt P08172).
T1 sequence (P08172 whole entry): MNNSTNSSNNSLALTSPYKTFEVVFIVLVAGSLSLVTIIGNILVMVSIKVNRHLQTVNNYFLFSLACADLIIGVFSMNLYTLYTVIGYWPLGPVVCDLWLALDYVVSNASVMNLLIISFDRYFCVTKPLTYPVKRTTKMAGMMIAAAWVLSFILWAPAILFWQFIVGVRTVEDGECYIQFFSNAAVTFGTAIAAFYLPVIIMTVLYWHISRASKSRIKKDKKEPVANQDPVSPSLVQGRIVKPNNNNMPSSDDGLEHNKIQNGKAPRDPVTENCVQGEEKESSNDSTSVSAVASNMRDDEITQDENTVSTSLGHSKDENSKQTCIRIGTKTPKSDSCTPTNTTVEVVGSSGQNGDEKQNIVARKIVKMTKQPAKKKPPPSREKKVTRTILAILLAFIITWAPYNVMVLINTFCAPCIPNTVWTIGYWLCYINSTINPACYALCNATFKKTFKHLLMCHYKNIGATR

The target of assay [2] is T2, B1 bradykinin receptor (Homo sapiens, UniProt P46663).
T2 sequence (P46663 whole entry): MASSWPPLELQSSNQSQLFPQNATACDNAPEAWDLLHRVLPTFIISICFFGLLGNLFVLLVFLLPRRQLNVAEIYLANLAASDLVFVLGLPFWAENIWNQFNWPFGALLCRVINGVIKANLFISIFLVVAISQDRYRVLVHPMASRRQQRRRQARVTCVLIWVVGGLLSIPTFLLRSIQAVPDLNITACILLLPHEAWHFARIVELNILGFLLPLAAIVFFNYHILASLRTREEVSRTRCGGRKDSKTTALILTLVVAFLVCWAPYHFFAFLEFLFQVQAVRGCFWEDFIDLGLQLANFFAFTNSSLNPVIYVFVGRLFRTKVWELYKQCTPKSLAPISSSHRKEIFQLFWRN

Assay [3] deals with Histamine H2 receptor (Homo sapiens, UniProt P25021).
Chain of Histamine H2 receptor (P25021 whole entry): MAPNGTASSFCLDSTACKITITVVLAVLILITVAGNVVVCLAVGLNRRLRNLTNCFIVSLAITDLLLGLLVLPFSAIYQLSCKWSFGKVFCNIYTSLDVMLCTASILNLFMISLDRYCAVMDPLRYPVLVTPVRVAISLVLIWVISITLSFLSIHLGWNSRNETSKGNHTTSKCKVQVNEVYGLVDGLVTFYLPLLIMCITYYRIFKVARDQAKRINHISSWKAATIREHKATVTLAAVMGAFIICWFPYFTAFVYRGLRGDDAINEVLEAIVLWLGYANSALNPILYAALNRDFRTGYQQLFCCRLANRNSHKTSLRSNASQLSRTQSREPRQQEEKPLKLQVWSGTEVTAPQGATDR
For assay [4], the target named is Voltage-dependent N-type calcium channel subunit alpha-1B (Rattus norvegicus, UniProt Q02294). The assay is classed as functional.
Chain of Voltage-dependent N-type calcium channel subunit alpha-1B (Q02294 whole entry): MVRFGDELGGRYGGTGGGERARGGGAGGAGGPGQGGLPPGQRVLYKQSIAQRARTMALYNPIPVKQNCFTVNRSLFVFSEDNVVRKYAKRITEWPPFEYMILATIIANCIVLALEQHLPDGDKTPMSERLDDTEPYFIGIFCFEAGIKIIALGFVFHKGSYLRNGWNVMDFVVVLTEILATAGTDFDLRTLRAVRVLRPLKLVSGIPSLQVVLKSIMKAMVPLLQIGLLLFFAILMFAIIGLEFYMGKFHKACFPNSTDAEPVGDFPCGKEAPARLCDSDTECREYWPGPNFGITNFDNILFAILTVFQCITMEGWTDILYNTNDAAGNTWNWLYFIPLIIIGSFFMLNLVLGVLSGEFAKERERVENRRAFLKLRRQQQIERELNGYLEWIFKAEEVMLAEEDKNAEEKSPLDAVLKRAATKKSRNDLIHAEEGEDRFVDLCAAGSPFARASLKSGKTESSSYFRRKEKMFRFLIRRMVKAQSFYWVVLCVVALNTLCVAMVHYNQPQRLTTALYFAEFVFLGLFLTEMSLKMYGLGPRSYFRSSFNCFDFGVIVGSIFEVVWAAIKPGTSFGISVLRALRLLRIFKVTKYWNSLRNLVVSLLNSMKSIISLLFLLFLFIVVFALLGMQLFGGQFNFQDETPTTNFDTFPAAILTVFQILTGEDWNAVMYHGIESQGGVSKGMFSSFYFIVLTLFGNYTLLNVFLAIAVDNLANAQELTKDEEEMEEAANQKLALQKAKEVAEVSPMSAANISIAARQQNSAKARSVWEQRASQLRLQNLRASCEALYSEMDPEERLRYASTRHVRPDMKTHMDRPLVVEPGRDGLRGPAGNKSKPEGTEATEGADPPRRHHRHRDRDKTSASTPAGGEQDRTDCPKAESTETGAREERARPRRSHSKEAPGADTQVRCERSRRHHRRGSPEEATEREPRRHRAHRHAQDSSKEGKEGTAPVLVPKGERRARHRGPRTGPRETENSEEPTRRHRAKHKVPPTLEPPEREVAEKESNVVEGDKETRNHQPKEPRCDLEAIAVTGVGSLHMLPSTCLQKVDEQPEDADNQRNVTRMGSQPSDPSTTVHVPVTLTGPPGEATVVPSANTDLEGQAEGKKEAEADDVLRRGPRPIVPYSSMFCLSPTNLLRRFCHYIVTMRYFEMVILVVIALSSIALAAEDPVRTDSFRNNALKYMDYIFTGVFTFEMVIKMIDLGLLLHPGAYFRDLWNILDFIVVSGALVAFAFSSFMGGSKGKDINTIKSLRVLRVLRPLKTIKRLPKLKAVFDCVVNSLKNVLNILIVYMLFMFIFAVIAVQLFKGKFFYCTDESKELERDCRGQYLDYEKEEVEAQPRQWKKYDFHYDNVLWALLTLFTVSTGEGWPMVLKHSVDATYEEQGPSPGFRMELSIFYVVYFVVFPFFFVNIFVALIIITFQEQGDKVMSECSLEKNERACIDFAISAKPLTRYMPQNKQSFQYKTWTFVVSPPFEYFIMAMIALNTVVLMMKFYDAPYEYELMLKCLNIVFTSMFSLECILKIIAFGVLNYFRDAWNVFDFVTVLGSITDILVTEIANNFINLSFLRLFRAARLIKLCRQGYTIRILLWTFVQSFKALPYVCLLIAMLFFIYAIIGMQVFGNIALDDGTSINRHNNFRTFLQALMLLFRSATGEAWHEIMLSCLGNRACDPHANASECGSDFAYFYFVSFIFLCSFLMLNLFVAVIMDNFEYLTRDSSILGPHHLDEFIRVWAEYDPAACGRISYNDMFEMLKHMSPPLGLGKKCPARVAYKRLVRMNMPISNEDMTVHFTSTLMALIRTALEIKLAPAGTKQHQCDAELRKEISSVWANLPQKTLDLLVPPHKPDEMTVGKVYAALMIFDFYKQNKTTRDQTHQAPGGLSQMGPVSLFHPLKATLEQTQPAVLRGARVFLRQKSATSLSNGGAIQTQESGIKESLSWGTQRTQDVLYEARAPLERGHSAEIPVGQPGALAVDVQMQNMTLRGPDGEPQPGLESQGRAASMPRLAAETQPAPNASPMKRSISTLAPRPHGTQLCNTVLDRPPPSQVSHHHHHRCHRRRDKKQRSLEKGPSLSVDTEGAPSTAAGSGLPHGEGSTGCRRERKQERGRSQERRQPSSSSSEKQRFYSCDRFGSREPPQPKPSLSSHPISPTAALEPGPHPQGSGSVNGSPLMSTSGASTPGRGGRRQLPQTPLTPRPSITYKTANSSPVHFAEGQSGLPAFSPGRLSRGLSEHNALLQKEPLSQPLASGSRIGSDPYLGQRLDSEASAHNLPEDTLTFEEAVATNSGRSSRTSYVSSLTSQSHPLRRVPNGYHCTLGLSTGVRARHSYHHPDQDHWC
The target of assay [5] is Estrogen receptor beta (Homo sapiens, UniProt Q92731).
Chain of Estrogen receptor beta (Q92731 whole entry): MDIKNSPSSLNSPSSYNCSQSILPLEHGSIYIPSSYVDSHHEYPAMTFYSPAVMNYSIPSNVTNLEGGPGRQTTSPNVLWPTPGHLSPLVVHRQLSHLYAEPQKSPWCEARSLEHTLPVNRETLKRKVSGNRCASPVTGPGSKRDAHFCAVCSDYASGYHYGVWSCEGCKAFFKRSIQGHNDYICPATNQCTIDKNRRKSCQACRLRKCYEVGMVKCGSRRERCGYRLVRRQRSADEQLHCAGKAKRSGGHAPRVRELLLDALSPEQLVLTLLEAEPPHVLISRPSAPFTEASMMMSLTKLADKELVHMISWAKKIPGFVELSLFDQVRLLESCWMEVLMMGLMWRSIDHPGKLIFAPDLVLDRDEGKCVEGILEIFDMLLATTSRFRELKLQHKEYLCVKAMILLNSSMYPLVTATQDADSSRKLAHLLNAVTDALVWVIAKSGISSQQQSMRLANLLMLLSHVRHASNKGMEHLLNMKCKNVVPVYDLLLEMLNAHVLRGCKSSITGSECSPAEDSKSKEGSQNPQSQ
Assay [6] addresses Mu-type opioid receptor (Homo sapiens, UniProt P35372). The experiment in a line: biochemical. The assay is classed as functional.
The target of assay [7] is T3, Glucocorticoid receptor (Homo sapiens, UniProt P04150).
T3 sequence (P04150 whole entry): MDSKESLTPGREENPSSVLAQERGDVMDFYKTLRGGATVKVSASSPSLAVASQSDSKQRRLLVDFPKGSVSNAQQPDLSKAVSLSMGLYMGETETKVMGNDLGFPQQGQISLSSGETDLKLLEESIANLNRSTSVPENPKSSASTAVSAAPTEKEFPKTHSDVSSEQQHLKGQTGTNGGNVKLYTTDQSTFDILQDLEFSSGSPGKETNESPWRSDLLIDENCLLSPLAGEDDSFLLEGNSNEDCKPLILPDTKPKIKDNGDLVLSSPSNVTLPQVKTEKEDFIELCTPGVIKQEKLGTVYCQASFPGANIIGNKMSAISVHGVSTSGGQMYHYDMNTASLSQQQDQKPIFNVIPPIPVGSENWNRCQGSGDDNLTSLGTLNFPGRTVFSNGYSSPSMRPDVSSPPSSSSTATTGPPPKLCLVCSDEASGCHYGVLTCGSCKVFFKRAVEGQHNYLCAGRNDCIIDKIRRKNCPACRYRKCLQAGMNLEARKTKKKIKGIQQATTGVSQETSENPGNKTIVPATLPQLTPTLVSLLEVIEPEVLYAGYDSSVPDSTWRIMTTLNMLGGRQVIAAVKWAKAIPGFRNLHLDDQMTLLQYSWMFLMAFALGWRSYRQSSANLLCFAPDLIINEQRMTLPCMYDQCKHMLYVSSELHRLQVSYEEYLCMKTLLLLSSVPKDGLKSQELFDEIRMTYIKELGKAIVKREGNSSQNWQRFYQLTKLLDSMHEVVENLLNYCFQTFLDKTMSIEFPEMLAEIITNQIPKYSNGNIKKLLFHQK
The assay is classed as functional.

In assay [8] the target is T3, Glucocorticoid receptor. Type of assay: functional. The source holds these as a separate data set.
The target of assay [9] is D(1A) dopamine receptor (Homo sapiens, UniProt P21728). Type of assay: functional, cell-based.
Chain of D(1A) dopamine receptor (P21728 whole entry): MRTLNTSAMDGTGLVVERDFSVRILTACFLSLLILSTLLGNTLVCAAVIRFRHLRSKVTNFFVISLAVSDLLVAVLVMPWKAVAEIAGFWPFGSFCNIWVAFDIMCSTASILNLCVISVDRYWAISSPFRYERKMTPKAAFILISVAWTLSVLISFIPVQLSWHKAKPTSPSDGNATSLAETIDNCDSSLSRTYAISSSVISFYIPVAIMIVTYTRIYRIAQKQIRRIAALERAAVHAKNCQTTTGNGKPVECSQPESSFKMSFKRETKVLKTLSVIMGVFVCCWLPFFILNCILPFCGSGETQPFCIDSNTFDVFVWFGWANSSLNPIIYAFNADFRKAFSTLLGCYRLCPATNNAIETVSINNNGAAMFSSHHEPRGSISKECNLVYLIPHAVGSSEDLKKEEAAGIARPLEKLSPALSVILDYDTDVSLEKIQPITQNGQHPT
The target of assay [10] is T4, Estrogen receptor (Homo sapiens, UniProt P03372).
T4 sequence (P03372 whole entry): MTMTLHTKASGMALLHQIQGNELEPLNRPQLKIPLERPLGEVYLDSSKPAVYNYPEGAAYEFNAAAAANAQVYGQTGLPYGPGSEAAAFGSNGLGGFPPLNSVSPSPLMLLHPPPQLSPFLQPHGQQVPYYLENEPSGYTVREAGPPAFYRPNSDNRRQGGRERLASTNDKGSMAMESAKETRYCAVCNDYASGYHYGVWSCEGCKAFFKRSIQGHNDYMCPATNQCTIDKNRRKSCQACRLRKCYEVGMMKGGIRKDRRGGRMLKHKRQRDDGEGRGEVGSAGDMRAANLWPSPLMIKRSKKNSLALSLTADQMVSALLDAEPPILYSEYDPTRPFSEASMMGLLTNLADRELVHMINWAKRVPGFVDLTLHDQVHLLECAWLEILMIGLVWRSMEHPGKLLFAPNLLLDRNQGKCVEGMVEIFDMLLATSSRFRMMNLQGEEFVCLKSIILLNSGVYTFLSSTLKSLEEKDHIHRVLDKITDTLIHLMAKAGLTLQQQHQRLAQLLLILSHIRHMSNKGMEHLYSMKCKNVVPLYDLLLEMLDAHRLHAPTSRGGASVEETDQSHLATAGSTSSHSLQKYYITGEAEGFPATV
Type of assay: functional.

The target of assay [11] is T4, Estrogen receptor. The assay is classed as functional. This is another data set of the same source.
Also: assay procedure not described here.

Chain of Mu-type opioid receptor (P35372 whole entry): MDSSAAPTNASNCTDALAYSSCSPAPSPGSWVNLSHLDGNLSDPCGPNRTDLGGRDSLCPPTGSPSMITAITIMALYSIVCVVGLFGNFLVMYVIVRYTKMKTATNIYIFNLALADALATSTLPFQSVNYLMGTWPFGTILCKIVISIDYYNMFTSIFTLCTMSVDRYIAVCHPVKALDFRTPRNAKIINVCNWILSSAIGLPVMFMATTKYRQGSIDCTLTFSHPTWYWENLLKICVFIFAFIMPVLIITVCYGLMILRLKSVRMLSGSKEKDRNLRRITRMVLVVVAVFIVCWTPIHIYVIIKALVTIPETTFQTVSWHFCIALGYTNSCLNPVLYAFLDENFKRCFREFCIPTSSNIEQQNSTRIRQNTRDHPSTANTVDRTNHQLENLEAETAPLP

Consider `CN(C)CCC(c1ccc(Cl)cc1)c1ccccn1` (stereo not drawn) [CHLORPHENIRAMINE], for which the AC50 is 5.52 µM in [1], over 30 µM in [2], 0.412 µM in assay [3] and over 10 µM in assay [4].
In the case of `CO[C@H]1C[C@@H]2CC[C@@H](C)[C@@](O)(O2)C(=O)C(=O)N2CCCC[C@H]2C(=O)O[C@H]([C@H](C)C[C@@H]2CC[C@@H](O)[C@H](OC)C2)CC(=O)[C@H](C)/C=C(\C)[C@@H](O)[C@@H](OC)C(=O)[C@H](C)C[C@H](C)/C=C/C=C/C=C/1C` [SIROLIMUS], the concentration at half-maximal activity (AC50) is over 30 µM in assay [2], over 30 µM in assay [5] and over 10 µM in [4].
On to `Cc1cn([C@H]2C=C[C@@H](CO)O2)c(=O)[nH]c1=O` [STAVUDINE], for which the AC50 in assay [1] is over 10 µM; in [2], over 30 µM; in assay [5], over 30 µM; in assay [3], over 10 µM; in [4] it was over 10 µM.
The molecule `CC(=O)NCCCS(=O)(=O)O` [ACAMPROSATE] gave an AC50 in assay [6] of over 30 µM.
With `CCOC(=O)[C@H](CCc1ccccc1)N[C@@H](C)C(=O)N1[C@H](C(=O)O)C[C@@H]2CCC[C@@H]21`, the half-maximal activity concentration (AC50) was over 10 µM in assay [1]; over 30 µM in [2]; over 30 µM in [5]; over 10 µM in [3]; over 10 µM in [4].
In turn, `CC[C@H]1[C@@H](O)[C@@H]2[C@H](CC[C@]3(C)[C@@H]([C@H](C)CCC(=O)O)CC[C@@H]23)[C@@]2(C)CC[C@@H](O)C[C@@H]12` [OBETICHOLIC ACID] had an AC50 in assay [6] of over 30 µM.
The same measure, in the same setting: as for `Cc1nc([N+](=O)[O-])cn1-c1ccc([N+](=O)[O-])cc1` [NITREFAZOLE], the figure is over 30 µM.
Regarding `CNC(=O)c1ccccc1Sc1ccc2c(/C=C/c3ccccn3)n[nH]c2c1` [AXITINIB], the AC50 in assay [7] was over 10 µM; in assay [8], over 10 µM; in [9], over 30 µM.
Take `Cc1ccc(-c2cc(C(F)(F)F)nn2-c2ccc(S(N)(=O)=O)cc2)cc1` [CELECOXIB]: the AC50 was over 10 µM in assay [1], over 30 µM in assay [2], over 10 µM in assay [3] and over 10 µM in assay [4].
`O=P1(NCCCl)OCCCN1CCCl` (stereo not drawn) [IFOSFAMIDE]: the AC50 in [6] was over 30 µM.
In assay [6], `Nc1nc(NC2CC2)c2ncn([C@H]3C=C[C@@H](CO)C3)c2n1` [ABACAVIR] had an AC50 of over 30 µM.
Regarding `CCC(C)n1ncn(-c2ccc(N3CCN(c4ccc(OCC5COC(Cn6cncn6)(c6ccc(Cl)cc6Cl)O5)cc4)CC3)cc2)c1=O` (stereo not drawn) [ITRACONAZOLE], the AC50 in [1] was over 10 µM; in assay [6], over 30 µM; in assay [2], over 30 µM; in assay [5] it was over 30 µM; in [3], over 10 µM; in [4], over 10 µM.
As to `Cc1cn([C@H]2C[C@H](N=[N+]=[N-])[C@@H](CO)O2)c(=O)[nH]c1=O` [ZIDOVUDINE], the AC50 in [1] is over 10 µM; in [2], over 30 µM; in assay [3] it was over 10 µM; in assay [4], over 10 µM.
With `CS(=O)(=O)c1ccc(C2=C(c3ccccc3)C(=O)OC2)cc1` [ROFECOXIB], the AC50 was over 10 µM in assay [1]; over 30 µM in [6]; over 30 µM in [2]; over 30 µM in assay [5]; over 10 µM in assay [3]; over 10 µM in [4].
Turning to `O=C(Cc1ccc(-c2ccccc2)cc1)Nc1ccccn1` [DIFENPIRAMIDE], the AC50 in assay [6] is over 30 µM.
For `COCCCN1CCC(NC(=O)c2cc(Cl)c(N)c3c2OCC3)CC1` [PRUCALOPRIDE], the AC50 in assay [7] and in [8] was over 30 µM in each case.
For `C[C@]12CCC(=O)C=C1CC[C@@H]1[C@@H]2[C@@H](O)C[C@@]2(C)[C@H]1CC[C@]2(O)C(=O)CO` [HYDROCORTISONE], the AC50 was over 10 µM in assay [1]; over 30 µM in [2]; over 30 µM in assay [5]; over 10 µM in assay [3]; over 10 µM in assay [4].
The molecule `CN(C)/N=N/c1[nH]cnc1C(N)=O` [DACARBAZINE] had an AC50 in assay [6] of over 30 µM.
The same measure, in the same setting: as for `CCCCN1C[C@H](O)[C@@H](O)[C@H](O)[C@H]1CO`, the figure is over 30 µM.
With `Clc1ccc2nsnc2c1NC1=NCCN1` [TIZANIDINE], the AC50 in [1] is over 10 µM; in [6], over 30 µM; in assay [2], over 30 µM; in [5] it was over 30 µM; in assay [3] it was over 10 µM; in assay [4], over 10 µM.
For the molecule `CC1=C(C(=O)O)N2C(=O)[C@@H](NC(=O)[C@H](N)c3ccccc3)[C@H]2SC1` [CEPHALEXIN ANHYDROUS], the AC50 in assay [2] was over 30 µM; in [5], over 30 µM; in [3], over 10 µM; in assay [4], over 10 µM.
Turning to `CN1C(=O)CCS(=O)(=O)C1c1ccc(Cl)cc1` (stereo not drawn) [CHLORMEZANONE], in [6], the AC50 was over 30 µM.
The same measure, in the same setting: as for `COc1cc2nc(N(C)CCCNC(=O)C3CCCO3)nc(N)c2cc1OC` (stereo not drawn) [ALFUZOSIN], the figure is over 30 µM.
For the molecule `O=C(O[C@H]1C[C@H]2CC[C@@H](C1)[N+]21CCCC1)C(O)(c1ccccc1)c1ccccc1` [TROSPIUM], the AC50 is 0.026 µM in assay [1] and over 30 µM in assay [6].
`C=CCc1ccccc1OCC(O)CNC(C)C` (stereo not drawn) [ALPRENOLOL] returned an AC50 in [6] of over 30 µM.
For `CCC1=C(C)CN(C(=O)NCCc2ccc(S(=O)(=O)NC(=O)N[C@H]3CC[C@H](C)CC3)cc2)C1=O` [GLIMEPIRIDE], the AC50 in [7] and in assay [8] was over 30 µM in each case.
For `COc1ccccc1OCC(O)CN1CCN(CC(=O)Nc2c(C)cccc2C)CC1` (stereo not drawn) [RANOLAZINE], the AC50 in assay [6] was over 30 µM.
Take `CC[C@H]1OC(=O)[C@H](C)[C@@H](O[C@H]2C[C@@](C)(OC)[C@@H](O)[C@H](C)O2)[C@H](C)[C@@H](O[C@@H]2O[C@H](C)C[C@H](N(C)C)[C@H]2O)[C@](C)(O)C[C@@H](C)CN(C)[C@H](C)[C@@H](O)[C@]1(C)O` [AZITHROMYCIN]: the AC50 in assay [1] was over 10 µM; in assay [2] it was over 30 µM; in assay [5] it was over 30 µM; in assay [3], over 10 µM; in assay [4], over 10 µM.
For the molecule `CC1(C)NC(=O)N(c2ccc([N+](=O)[O-])c(C(F)(F)F)c2)C1=O` [NILUTAMIDE], the AC50 in assay [6] is over 30 µM.
Consider `O=C1Nc2ccc(Cl)cc2[C@@](C#CC2CC2)(C(F)(F)F)O1` [EFAVIRENZ], for which the AC50 in [7], in assay [8], in [10] and in assay [11] was over 30 µM each time.
